Data from publication PMC9506420, “Biological Evaluation of 3-Azaspiro[Bicyclo[3.1.0]Hexane-2,5′-Pyrimidines] as Potential Antitumor Agents” (International Journal of Molecular Sciences, 2022).
“And” between values parts separate entries of the source, which are not always exact repeats. Equal values may be shown once. Read-outs that look alike come from different tables or passages of the source.

Columns and labels:
[1] = test system: CT26 cells; test: Cell cycle distribution by flow cytometry (propidium iodide), CT26; format: cell-based, mouse; settings: for SubG1 (%) / G2/M (%) / S (%) / G0/G1 (%): CT26, 10 μg/mL, 24 h; for SubG1 (%): control 3.6 ± 0.6; for G2/M (%): control 12.3 ± 0.9; for S (%): control 40.1 ± 1.5; for G0/G1 (%): control 44.0 ± 1.7; for cytostatic effect (cell cycle), CT26: CT26 cell line
Protocol: (§1) One of the indicators of the influence of biologically active products on the cells is the changed distribution of cells during different stages of the cell cycle. In this work, recently synthesized compounds were tested using flow cytometry for their effect on the distribution of cells in the cell cycle (G0/G1, G2/M, and S). Figure 8, Figure 9 and Figure 10 and Table 3 show the typical data after processing the results from three replicates of each experiment.
(§2) The distribution of HeLa and CT26 cells in the G0/G1-, S-, and G2/M-phases of the cell cycle was obtained by quantification of DNA content in propidium-iodide-stained cells using flow cytometry. Briefly, cells were seeded in 24-well plates at a density of 5 × 10^4 cells per well. After 24 h incubation, cells were exposed to 10 μg/mL of compounds 4c–i (the structure is provided in Scheme 1) for 24 h. The effects of compounds 4d, 4e, 4g, 4h were additionally tested at concentrations of 2 and 5 μg/mL. After incubation with drugs, the cells were detached by exposure to trypsin-EDTA for 5 min at 37 °C and then collected by pipetting. This was followed by treatment with 0.2 mg/mL saponin (Fluka, Waltham, MA, USA), 0.25 mg/mL RNase (Sigma-Aldrich, St. Louis, MO, USA), and 0.05 mg/mL propidium iodide (Invitrogen, Carlsbad, CA, USA). After washing, the samples were analyzed by standard flow cytometer (BD FACSCanto II, Becton Dickinson, San Jose, CA, USA). Then, 10,000 events were acquired for the sample. Data processing was performed using BD FACSDiva 9.0 software.

[2] = test system: African green monkey kidney epithelial (Vero) cell line; test: MTS antiproliferative (cytotoxicity) assay, Vero (reference); format: cell-based; settings: Chlorocebus sabaeus, Vero
Protocol: (§3) The cytotoxicity of synthesized 3-azaspiro[bicyclo[3.1.0]hexane-2,5′-pyrimidines] 4 against human erythroleukemia (K562), cervical carcinoma (HeLa), and T lymphocyte (Jurkat), as well as mouse colon carcinoma (CT26) and African green monkey kidney epithelial (Vero) cell lines as reference, was evaluated in vitro by the standard MTS assay for 24 and 72 h.
(§4) All the cell lines (human cervical carcinoma (HeLa), erythroleukemia (K-562), and T lymphocyte (Jurkat) as well as mouse colon carcinoma (CT26) and African green monkey kidney epithelial (Vero)) were obtained from the cell repository “Vertebrate cell culture collection” (supported by the Ministry of Science and Higher Education of the Russian Federation, agreement №075-15-2021-683, Institute of Cytology, Russian Academy of Sciences, Saint Petersburg, Russia). HeLa, Jurkat, and Vero cells were cultured in DMEM (HyClone, South Logan, UT, USA) supplemented with 10% (v/v) fetal bovine serum (Hyclone, GE Healthcare Life Sciences, Logan, UT, USA), and gentamicin (Sigma-Aldrich, St. Louis, MO, USA) at 37 °C in a humidified atmosphere with 5% CO2. K-562 and CT26 cells were grown at RPMI medium (Hyclone, GE Healthcare Life Sciences, Logan, UT, USA), with the same supplements and conditions.
(§5) To evaluate the in vitro toxicity of compounds synthesized, cells were seeded into 96-well plates at a density of 5 × 10^3 cells per well. On the next day, tested compounds were added to the wells at concentrations ranging from […], followed by incubation for 1 and 3 days. Cell proliferation was determined by adding 20 μL of MTS reagent (BioVision, Milpitas, CA, USA) stock solution per well. Each plate was incubated for 2 h at 37 °C in a humidified, 5% CO2 atmosphere. The plates were then read at 495 nm using plate spectrophotometer (Multiskan GO, Thermo Fisher Scientific, Waltham, MA, USA). All samples were measured in triplicates.

[3] = test system: human cervical carcinoma (HeLa) cell line; test: MTS antiproliferative (cytotoxicity) assay, HeLa; format: cell-based; settings: HeLa; for SI (selectivity index), HeLa: Vero as reference cell line; for IC50: Homo sapiens
Protocol: as §3, §4, §5

[4] = test system: CT26 cells; test: Annexin V-FITC/DAPI cell death analysis, CT26; format: cell-based, mouse; settings: CT26, 10 μg/mL, 72 h; for Necrotic Cells, %: control 0.0 ± 0.0; for Late Apoptotic Cells, %: control 0.9 ± 0.4; for Early Apoptotic Cells, %: control 10.5 ± 0.7; for Live Cells, %: control 88.5 ± 1.1
Protocol: (§6) The results of cell death detection after the exposure of the HeLa and CT26 cell lines to spiro-fused cycloadducts 4c–i at a dose of 10 μg/mL for 72 h, using Annexin V-FITC/DAPI staining, are shown in Figure 6 and Figure 7, respectively.
(§7) Cells were seeded in 24-well plates, 5 × 10^4 cells per well. After 24 h incubation, cells were treated with compounds 4c–i for 72 h. Then, cells were washed, harvested by trypsinisation, stained with Annexin V-FITC ([…]) and DAPI (Thermo Fisher Scientific, Waltham, MA, USA), in accordance with the protocol of the manufacturer, and analyzed by flow cytometry. The proapoptotic effect of azaspiro[bicyclo[3.1.0]hexane-2,5′-pyrimidines] 4c–i was evaluated by an Annexin V-FITC/DAPI (AV/DAPI) dual-staining assay to examine the occurrence of phosphatidylserine externalization, which facilitated the detection of live cells (lower-left quadrant; AV−/DAPI−), early apoptotic cells (upper-left quadrant; AV+/DAPI−), late apoptotic cells (upper-right quadrant; AV+/DAPI+), and necrotic cells (lower-right quadrant; AV−/DAPI+).

[5] = test system: HeLa cells; test: Cell cycle distribution by flow cytometry (propidium iodide), HeLa; format: cell-based, human; settings: HeLa, 10 μg/mL, 24 h; for SubG1 (%): control 2.3 ± 0.4; for G2/M (%): control 12.2 ± 1.3; for S (%): control 12.5 ± 1.7; for G0/G1 (%): control 73.1 ± 2.6
Protocol: as §1, §2

[6] = test system: mouse colon carcinoma (CT26) cell line; test: MTS antiproliferative (cytotoxicity) assay, CT26; format: cell-based; settings: for SI (selectivity index), CT26: Vero as reference cell line; for IC50: Mus musculus
Protocol: as §3, §4, §5

[7] = test system: HeLa cells; test: Annexin V-FITC/DAPI cell death analysis, HeLa; format: cell-based, human; settings: 10 μg/mL, 72 h; for Necrotic Cells, %: control 0.5 ± 0.3; for Early Apoptotic Cells, %: control 4.5 ± 0.7; for Live Cells, %: control 89.0 ± 0.7; for Late Apoptotic Cells, %: control 5.9 ± 0.4
Protocol: as §6, §7

[8] = 24 h, read-out: IC50, Vero, 24 h
[9] = 72 h, read-out: IC50, Vero, 72 h
[10] = 24 h, read-out: IC50, HeLa, 24 h
[11] = 72 h, read-out: IC50, HeLa, 72 h
[12] = CT26, 24 h, read-out: IC50, CT26, 24 h
[13] = CT26, 72 h, read-out: IC50, CT26, 72 h

Row | SMILES | SubG1 (%) [1] | G2/M (%) [1] | S (%) [1] | G0/G1 (%) [1] | IC50 [2, 8] | IC50 [2, 9] | SI (selectivity index), HeLa [3] | IC50 [3, 10] | IC50 [3, 11] | Necrotic Cells, % [4] | Late Apoptotic Cells, % [4] | Early Apoptotic Cells, % [4] | Live Cells, % [4] | SubG1 (%) [5] | G2/M (%) [5] | S (%) [5] | G0/G1 (%) [5] | SI (selectivity index), CT26 [6] | IC50 [6, 12] | IC50 [6, 13] | also measured
1 | CC[C@@H]1NC2(C(=O)NC(=O)NC2=O)[C@]2(c3ccccc3)[C@@H](c3ccccc3)[C@]12c1ccccc1 [Compound 4c] | 2.0 ± 0.4 % | 13.2 ± 2.9 % | 16.3 ± 1.7 % | 68.5 ± 3.0 % | 47 ± 11 µM | 16 ± 2 µM | 1.3 | 21 ± 2 µM | 13 ± 2 µM | 1.8 ± 0.8 % | 6.4 ± 1.0 % | 1.9 ± 0.3 % | 89.8 ± 0.5% | 8.1 ± 1.9 % | 11.0 ± 1.5% | 17.6 ± 1.2 % | 63.3 ± 2.2 % | 0.8 | 27 ± 2 µM | 20 ± 2 µM | rate of cell death in HeLa vs control [7]: not different from the control; Necrotic Cells, % [7]: 2.2 ± 0.5 %; Early Apoptotic Cells, % [7]: 5.6 ± 1.3%; Live Cells, % [7]: 81.0 ± 4.4 %
2 | O=C1NC(=O)C2(N[C@@H](c3ccccc3)[C@@]3(c4ccccc4)[C@H](c4ccccc4)[C@@]23c2ccccc2)C(=O)N1 [Compound 4i] | 7.2 ± 2.2 % | 22.4 ± 1.7 % | 37.2 ± 0.2 % | 33.2 ± 0.6 % | 97 ± 12 µM | 23 ± 4 µM | 2.0 | 10 ± 2 µM | 12 ± 6 µM | 0.4 ± 0.1 % | 19.5 ± 0.5 % | 4.0 ± 0.1 % | 76.2 ± 0.3 % | 20.1 ± 1.3 % | 9.9 ± 0.8 % | 18.1 ± 2.4 % | 51.8 ± 4.0 % | 2.0 | 16 ± 2 µM | 12 ± 2 µM | cytostatic effect (cell cycle), CT26 [1]: best effect; Necrotic Cells, % [7]: 2.1 ± 0.9 %; Early Apoptotic Cells, % [7]: 12.6 ± 0.8 %; Late Apoptotic Cells, % [7]: 17.3 ± 1.4 %; Live Cells, % [7]: 67.9% and 67.9 ± 2.4 %
3 | CSCC[C@@H]1NC2(C(=O)NC(=O)NC2=O)[C@]2(c3ccccc3)[C@@H](c3ccccc3)[C@]12c1ccccc1 [Compound 4h] | 10.8 ± 2.3 % | 18.9 ± 6.8 % | 32.0 ± 0.6 % | 38.3 ± 7.9 % | 31 ± 4 µM | 22 ± 4 µM | 1.0 | 28 ± 2 µM | 24 ± 6 µM | 0.9 ± 0.3 % | 24.0 ± 0.7 % | 4.8 ± 0.5 % | 70.3 ± 0.6 % | 9.9 ± 7.8 % | 12.6 ± 0.8% | 13.9 ± 1.8% | 63.6 ± 6.8 % | 1.4 | 22 ± 2 µM | 16 ± 2 µM | cytostatic effect (cell cycle), CT26 [1]: best effect; Necrotic Cells, % [7]: 1.9 ± 0.2 %; Early Apoptotic Cells, % [7]: 9.8 ± 1.0 %; Late Apoptotic Cells, % [7]: 15.3 ± 0.5 %; Live Cells, % [7]: 72.2% and 72.2 ± 0.4 %
